Data: patent US20240293394A1, “METHODS FOR TREATING ANTIPSYCHOTIC-INDUCED WEIGHT GAIN” (priority 2010, published 2024)
Read-outs that look alike come from different tables or passages of the source.

Key:
[1] = Olanzapine-related weight gain in female rats; type: in vivo
From the text: The rats were assigned to treatment groups using a random block design based on initial body weight.

ghrelin [2] = assay: Circulating ghrelin levels in conscious, unrestrained rats; type: in vivo; details: 10 mg/kg PO, two hours post administration
Protocol: To determine whether Compound1 and naltrexone have any effect on circulating levels of ghrelin, conscious, unrestrained rats (low stress model) were administered Compound 1 and nalrextone (10 mg/kg, PO). Blood samples were collected and analyzed by bioanalytical for circulating levels of ghrelin at 0, 15, 30, 60, and 120 minutes most administration.

[3] = Olanzapine-related changes (body weight, adipose tissue, serum chemistry) in female cynomolgus monkeys; type: in vivo
Protocol: Clinical observations and weight gain were assessed over a 28-day treatment period. […] Beginning two weeks prior to the study, monkeys were given ad libitum access to a highly palatable, high caloric diet. On the day prior to the start of treatment, monkeys were weighed and assigned to groups using a randomized block design based on body weight (BW); average BW across the 3 groups was 3.1+0.08 kg on the day of randomization. Also, baseline whole body CT scans were taken on the day prior to initiation of treatments. […] A second CT scan was conducted on day 29.

[4] = patients; Taylor et al., Acta Psychiatr Scand. 2001; cited from earlier work
ghrelin [5] = details: known in literature; cited from earlier work
[6] = co-administration of Compound 1 0.4 mg/kg IM with olanzapine, serum, Day 28
[7] = olanzapine with Compound 1 0.4 mg/kg IM once daily, 28 days
[8] = olanzapine only, compared to the vehicle group

Structure (SMILES): O=C1CC[C@@]2(O)[C@H]3Cc4ccc(O)c5c4[C@@]2(CCN3CC2CC2)[C@H]1O5 [naltrexone]
- effect on olanzapine-induced weight gain ([1]; 2 mg/kg SC concurrent with afternoon olanzapine (1 mg/kg PO twice daily), 10 days): did not affect olanzapine-induced weight gain
- circulating ghrelin levels (ghrelin [2]): significantly greater circulating ghrelin levels than Compound 1

Structure (SMILES): NC(=O)c1ccc2c(c1O)[C@]13CCN(CC4CC4)[C@H](C2)[C@]1(O)CCC(=O)C3 [Compound 1]
- effect on olanzapine-induced elevation in LDL concentrations [3, 6]: prevented
- effect on olanzapine-induced elevation in TGs [3, 6]: prevented
- effect on OLZ-induced changes (weight, adipose tissue accretion, TGs and LDLs) ([3]; co-administration of Compound 1 with olanzapine, 28 days): mitigated
- average body weight gain [3, 7]: 0.08 kg
- average body weight gain, % of Day 0 BW [3, 7]: 2.6%

Structure (SMILES): O=C1Cc2cc(CCN3CCN(c4nsc5ccccc45)CC3)c(Cl)cc2N1 [ziprasidone, 5-[2-[4-(1,2-benzisothiazol-3-yl)-1-piperazinyl]ethyl]-6-chloro-1,3-dihydro-2H-indol-2-one]
- weight gain associated with atypical antipsychotic [4]: less

Structure (SMILES): O=C1CCc2ccc(OCCCCN3CCN(c4cccc(Cl)c4Cl)CC3)cc2N1 [aripiprazole, 7-[4-[4-(2,3-dichlorophenyl)piperazin-1-yl]butoxy]-3,4-dihydro-1H-quinolin-2-one]
- weight gain associated with atypical antipsychotic [4]: less

Structure (SMILES): OCCOCCN1CCN(C2=Nc3ccccc3Sc3ccccc32)CC1 [quetiapine, 2-(2-(4-dibenzo[b,f][1,4]thiazepine-11-yl-1-piperazinyl)ethoxy)ethanol]
- weight gain associated with atypical antipsychotic [4]: greatest

Structure (SMILES): Cc1cc2c(s1)Nc1ccccc1N=C2N1CCN(C)CC1 [olanzapine, 2-methyl-4-(4-methyl-1-piperazinyl)-10H-thieno[2,3-b][1,5]benzodiazepine]
- weight gain (body weight) ([1]; olanzapine alone 1 mg/kg PO twice daily, 10 consecutive days, vs vehicle control): greater increases in weight gain
- adipose tissue gain (CT scan) [3, 8]: gained relatively more adipose tissue compared to the vehicle group
- location of adipose tissue deposition (CT scan) [3, 8]: more abdominal fat accretion
- circulating ghrelin levels (ghrelin [5]): increases circulating ghrelin levels
